Measured values as given in the supplement of paper PMC10307832.

Key:
Assay in all cases: relative viability (nuclei count vs DMSO), 5 days (fraction); higher = more cells survive
[1] = compound: COc1nc(N)nc2c1ncn2[C@@H]1O[C@H](CO)[C@@H](O)[C@@H]1O [Nelarabine] + COc1cccc2cc(-c3nc([C@H]4CC[C@H](C(=O)O)CC4)n4ncnc(N)c34)[nH]c12 [OSI-027] (partner 0.5 µM)
How it was run: (§1)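 Relative viability divides the nuclei count in treated wells by that in vehicle wells. Lung cancer cell lines were seeded in 1536-well plates, dosed by pin tool the next day, and fixed and stained after 5 days in one step with final 0.05% Triton X-100, 1% formaldehyde and 1 ug/ml Hoechst. Dosing was a single drug or a fixed anchor-drug dose plus five library-drug doses (not always all listed) in √10 steps, and values are medians of duplicate plates imaged at 4×.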

[2] = compound: C=CCn1c(=O)c2cnc(Nc3ccc(N4CCN(C)CC4)cc3)nc2n1-c1cccc(C(C)(C)O)n1 [Adavosertib] + Cc1nc(Nc2ncc(C(=O)Nc3c(C)cccc3Cl)s2)cc(N2CCN(CCO)CC2)n1 [Dasatinib] (partner 0.075 µM)
How it was run: as §1

[3] = compound: COc1nc(N)nc2c1ncn2[C@@H]1O[C@H](CO)[C@@H](O)[C@@H]1O [Nelarabine] + O=C(CCCCCCC(=O)Nc1ccccc1)NO [Vorinostat] (partner 1 µM)
How it was run: as §1

[4] = compound: COc1nc(N)nc2c1ncn2[C@@H]1O[C@H](CO)[C@@H](O)[C@@H]1O [Nelarabine] + Cc1nc(NC(=O)N2CCC[C@H]2C(N)=O)sc1-c1ccnc(C(C)(C)C(F)(F)F)c1 [Alpelisib] (partner 2 µM)
How it was run: as §1

Row | Cell Line | relative viability ([1]; first compound 0.01 µM) | relative viability ([1]; first compound 0.03162 µM) | relative viability ([1]; first compound 0.1 µM) | relative viability ([1]; first compound 0.3162 µM) | relative viability ([1]; first compound 1 µM) | relative viability ([2]; first compound 0.01 µM) | relative viability ([2]; first compound 0.03162 µM) | relative viability ([2]; first compound 0.1 µM) | relative viability ([2]; first compound 0.3162 µM) | relative viability ([3]; first compound 0.01 µM) | relative viability ([3]; first compound 0.03162 µM) | relative viability ([3]; first compound 0.1 µM) | relative viability ([3]; first compound 0.3162 µM) | relative viability ([3]; first compound 1 µM) | relative viability ([4]; first compound 0.01 µM) | relative viability ([4]; first compound 0.03162 µM) | relative viability ([4]; first compound 0.1 µM) | relative viability ([4]; first compound 0.3162 µM) | relative viability ([4]; first compound 1 µM)
1 | NCI-H1623 | 0.436 | 0.374 | 0.392 | 0.379 | 0.391 | 0.451 | 0.553 | 0.507 | 0.575 |  |  |  |  |  |  |  |  |  | 
2 | HARA | 0.645 | 0.583 | 0.439 | 0.671 | 0.487 | 0.258 | 0.249 | 0.283 | 0.338 | 0.658 | 0.543 | 0.532 | 0.581 | 0.544 | 0.925 | 0.737 | 0.768 | 1.09 | 0.806
3 | NCI-H2126 | 0.761 | 0.724 | 0.641 | 0.771 | 0.66 | 0.602 | 0.619 | 0.564 | 0.561 | 0.945 | 0.803 | 0.689 | 0.691 | 0.816 | 0.875 | 0.81 | 0.779 | 0.744 | 0.774
4 | NCI-H1703 |  |  |  |  |  |  |  |  |  |  |  |  |  |  | 0.395 | 0.278 | 0.385 | 0.366 | 0.409
5 | UMC-11 | 0.655 | 0.569 | 0.586 | 0.476 | 0.503 | 0.489 | 0.414 | 0.517 | 0.461 | 0.385 | 0.306 | 0.386 | 0.371 | 0.404 | 1.1 | 0.597 | 0.909 | 1.02 | 0.96
6 | PC-14 | 1.41 | 0.97 | 0.936 | 1.22 | 1.05 | 0.281 | 0.236 | 0.23 | 0.057 | 0.832 | 0.736 | 0.662 | 0.578 | 0.691 | 0.857 | 0.97 | 1.02 | 1.04 | 0.947
7 | NCI-H1792 |  | 0.773 | 0.75 | 0.904 | 1.13 |  | 0.753 | 0.942 | 0.865 |  |  |  |  |  | 0.908 |  | 0.83 | 0.688 | 0.828
8 | NCI-H1651 | 0.761 | 0.677 | 0.727 | 0.874 | 0.631 | 0.479 | 0.409 | 0.396 | 0.282 | 0.487 | 0.591 | 0.525 | 0.566 | 0.553 | 1.15 | 0.963 | 1.12 | 1.02 | 0.855
9 | HCC-15 | 0.817 | 0.559 | 0.675 | 0.703 | 0.778 | 0.577 | 0.569 | 0.574 | 0.643 | 1.1 | 0.905 | 0.829 | 0.887 | 0.973 | 1.09 | 0.822 | 0.847 | 0.983 | 0.934
